Experimental data taken from ChEMBL document CHEMBL2375321, “Discovery of 3,3'-diindolylmethanes as potent antileishmanial agents” (Eur J Med Chem, 2013).
Values after ≈ are worked out from the molar mass of the structure shown. Active and inactive are the calls of the source. Unless noted, the rule behind the calls is not given here.

Assays:
Cryptococcus neoformans = experiment: Antifungal activity against Cryptococcus neoformans ATCC 90113 by CLSI method; type: functional, organism-based
Candida albicans = experiment: Antifungal activity against Candida albicans ATCC 90028 by CLSI method; type: functional, organism-based
Aspergillus fumigatus = experiment: Antifungal activity against Aspergillus fumigatus ATCC 204305 by CLSI method; type: functional, organism-based
[1] = tested on: Mycobacterium intracellulare; experiment: Antibacterial activity against Mycobacterium intracellulare ATCC 23068 by alamar blue assay; type: functional, organism-based
Staphylococcus aureus [2] = experiment: Antibacterial activity against methicillin-resistant Staphylococcus aureus ATCC 33591 by CLSI method; type: functional, organism-based; settings: for IC50: read-out: IC50
Staphylococcus aureus [3] = experiment: Antibacterial activity against Staphylococcus aureus ATCC 29213 by CLSI method; type: functional, organism-based
Vero = experiment: Cytotoxicity against african green monkey Vero cells up to 4.6 ug/ml after 48 hrs by neutral red assay; type: cell-based; settings: chlorocebus sabaeus
Leishmania donovani [4] = experiment: Antileishmanial activity against axenic amastigote of Leishmania donovani after 72 hrs by alamar blue assay; type: functional, organism-based; settings: for IC50: read-out: IC50
Leishmania donovani [5] = experiment: Antileishmanial activity against promastigote of Leishmania donovani after 72 hrs by alamar blue assay; type: functional, organism-based; settings: for IC50: read-out: IC50
[6] = Staphylococcus aureus, ATCC 33591

Compound | IC50 (Cryptococcus neoformans) [µM] | MFC (Cryptococcus neoformans) | MIC (Cryptococcus neoformans) | Activity (Candida albicans) | Activity (Aspergillus fumigatus) | IC50 [1] | MBC [1] | MIC [1] | MBC (Staphylococcus aureus [2]) | MIC (Staphylococcus aureus [2]; [6]) [µM] | IC50 (Staphylococcus aureus [2]; [6]) [µM] | IC50 (Staphylococcus aureus [3]) [µM] | MBC (Staphylococcus aureus [3]) | MIC (Staphylococcus aureus [3]) [µM] | Activity (Vero) | IC90 (Leishmania donovani [4]; Leishmania donovani, 72 h) [µM] | IC50 (Leishmania donovani [4]; Leishmania donovani, 72 h) [µM] | IC90 (Leishmania donovani [5]; Leishmania donovani, 72 h) [µM] | IC50 (Leishmania donovani [5]; Leishmania donovani, 72 h) [µM] | other results
Fc1ccc(C(c2c[nH]c3ccccc23)c2c[nH]c3ccccc23)cc1Br | 1.94 | 5.98 µM (≈ 2.51 µg/mL) | 2.99 µM (≈ 1.25 µg/mL) | inactive | inactive | Not Active | inactive | inactive | inactive | 23.9 (≈ 10 µg/mL) | 9.23 | 3.76 | inactive | 5.98 (≈ 2.51 µg/mL) | Non-toxic | 74.5 | 47.5 | 22.9 | 17.6 | 
Fc1cc(F)cc(C(c2c[nH]c3ccccc23)c2c[nH]c3ccccc23)c1 | 2.32 | 3.49 µM (≈ 1.25 µg/mL) | 3.49 µM (≈ 1.25 µg/mL) | inactive | inactive | Not Active | inactive | inactive | inactive | 6.98 (≈ 2.5 µg/mL) | 2.93 | 2.32 | inactive | 3.49 (≈ 1.25 µg/mL) | Non-toxic | 95.6 | 67.4 | 19.8 | 8.35 | 
Oc1ccc(C(c2c[nH]c3ccccc23)c2c[nH]c3ccccc23)cc1 | 18.9 | 59.2 µM (≈ 20 µg/mL) | 29.6 µM (≈ 10 µg/mL) | inactive | inactive | Not Active | inactive | inactive | inactive | 59.2 (≈ 20 µg/mL) | 17.8 | 10.5 | inactive | 29.6 (≈ 10 µg/mL) | Non-toxic | 88.9 | 51.3 | 106 | 92.8 | 
Oc1ccc(C(c2c[nH]c3ccc(I)cc23)c2c[nH]c3ccc(I)cc23)cc1 | 1.8 |  |  | inactive | inactive | Not Active | inactive | inactive |  | 2.12 (≈ 1.25 µg/mL) | 1.15 | 2.1 | 33.9 µM (≈ 20 µg/mL) | 4.24 (≈ 2.5 µg/mL) | Non-toxic | 52.5 | 39.8 | 53.2 | 19.1 | MBC (Staphylococcus aureus [2]; [6]): 10 µM (≈ 5.9 µg/mL)
Clc1ccc(C(c2c[nH]c3ccccc23)c2c[nH]c3ccccc23)cc1 | 5.56 | 14 µM (≈ 5.01 µg/mL) | 14 µM (≈ 5.01 µg/mL) | inactive | inactive | Not Active | inactive | inactive |  | 14 (≈ 5 µg/mL) | 6.12 | 3.79 | inactive | 7.02 (≈ 2.51 µg/mL) | Non-toxic | 77 | 42 | 39 | 26.7 | MBC (Staphylococcus aureus [2]; [6]): 56.2 µM (≈ 20.1 µg/mL)
c1csc(C(c2c[nH]c3ccccc23)c2c[nH]c3ccccc23)c1 | 18.9 | 30.5 µM (≈ 10 µg/mL) | 30.5 µM (≈ 10 µg/mL) | inactive | inactive | Not Active | inactive | inactive | inactive |  | 13.5 | 9.15 | inactive | 15.2 (≈ 4.99 µg/mL) | Non-toxic | 101 | 70.2 |  | 100 | MIC (Staphylococcus aureus [2]): inactive; IC90 (Leishmania donovani [5]): inactive
COc1cc(C(c2c[nH]c3ccc(I)cc23)c2c[nH]c3ccc(I)cc23)ccc1O | 3.92 | inactive | 32.3 µM (≈ 20 µg/mL) | inactive | inactive | Not Active | inactive | inactive | inactive | 4.03 (≈ 2.5 µg/mL) | 2.11 | 1.89 | inactive | 4.03 (≈ 2.5 µg/mL) | Non-toxic | 47.2 | 31.6 | 37.9 | 20.8 | 
Fc1ccc(C(c2c[nH]c3ccc(I)cc23)c2c[nH]c3ccc(I)cc23)cc1Br | 16.8 | 29.9 µM (≈ 20 µg/mL) | 29.9 µM (≈ 20 µg/mL) | inactive | inactive |  |  |  |  |  |  |  |  |  | Non-toxic | 31.4 | 18.2 | 18.2 | 9.84 | 
COc1ccc2[nH]cc(C(c3cc(F)cc(F)c3)c3c[nH]c4ccc(OC)cc34)c2c1 | 18.4 | inactive | 47.9 µM (≈ 20 µg/mL) | inactive | inactive | Not Active | inactive | inactive | inactive | 11.7 (≈ 4.9 µg/mL) | 6.89 | 4.05 | inactive | 11.7 (≈ 4.9 µg/mL) | Non-toxic | 78.7 | 49.6 | 65.3 | 26.8 | 
Oc1ccccc1C(c1c[nH]c2ccccc12)c1c[nH]c2ccccc12 | 14.6 | inactive | 59.2 µM (≈ 20 µg/mL) | inactive | inactive | Not Active | inactive | inactive | inactive |  | 36.2 | 17.2 | inactive | 59.2 (≈ 20 µg/mL) | Non-toxic |  | 95.9 | 75.7 | 41.1 | MIC (Staphylococcus aureus [2]): inactive; IC90 (Leishmania donovani [4]): inactive
O=[N+]([O-])c1ccc(C(c2c[nH]c3ccccc23)c2c[nH]c3ccccc23)o1 | 29.6 | inactive | inactive | inactive | inactive |  | inactive | inactive | inactive | 14 (≈ 5 µg/mL) | 8.54 | 12 | 28 µM (≈ 10 µg/mL) | 28 (≈ 10 µg/mL) | Non-toxic | 41.8 | 31.5 | 12.2 | 6.61 | IC50 ([1]; Mycobacterium intracellulare, ATCC 23068, read-out: IC50): 52.9 µM
